Experiment: Binding affinity against opioid receptor delta 1 using [3H]naltrindole as radioligand in guinea pig brain membranes.

Row | SMILES | Ki
1 | c1cc2c(cc1-c1nnn[nH]1)[C@@]13CCCC[C@H]1[C@@H](C2)N(CC1CCC1)CC3 [3-(1'H-Tetrazol-5'-yl)-N-cyclobutylmethylmorphinan] | > 10000 nM
2 | NC(=O)c1ccc2c(c1)[C@@]13CCCC[C@H]1[C@@H](C2)N(CC1CCC1)CC3 [3-Carboxamido-N-cyclobutylmethylmorphinan] | 4 nM
3 | NCc1ccc2c(c1)[C@@]13CCCC[C@H]1[C@@H](C2)N(CC1CCC1)CC3 [3-Aminomethyl-N-cyclobutylmethylmorphinan] | 410 nM
4 | CN1CC[C@]23CCCC[C@H]2[C@H]1Cc1ccc(CN)cc13 [3-Aminomethyl-N-methylmorphinan] | 2500 nM
5 | O=C1c2ccc(-c3nnn[nH]3)cc2[C@@]23CCCC[C@H]2[C@@H]1N(CC1CCC1)CC3 [3-Tetrazolo-10-keto-N-cyclobutylmethylmorphinan] | 1800 nM
6 | COCCN1CC[C@]23CCCC[C@H]2[C@H]1C(=O)c1ccc(O)cc13 [3-Hydroxy-10-keto-N-(2-methoxyethyl)morphinan] | > 10000 nM
7 | O=C1c2ccc(O)cc2[C@@]23CCCC[C@H]2[C@@H]1N(C[C@@H]1CCCO1)CC3 [3-Hydroxy-10-keto-N-(tetrahydrofuran-2-yl)methylmorphinan] | 1 nM
8 | O=C1c2ccc(O)cc2[C@@]23CCCC[C@H]2[C@@H]1N(CCF)CC3 [3-Hydroxy-10-keto-N-(2-fluoroethyl)morphinan] | > 10000 nM
9 | CN1CC[C@]23CCCC[C@H]2[C@H]1C(=O)c1ccc(O)cc13 [3-Hydroxy-10-keto-N-methylmorphinan] | 1200 nM
10 | Nc1ccc2c(c1)[C@@]13CCCC[C@H]1[C@@H](C2=O)N(CC1CCC1)CC3 [3-Amino-10-keto-N-cyclobutylmethylmorphinan] | 600 nM
11 | C#CCOc1ccc2c(c1)[C@@]13CCCC[C@H]1[C@@H](C2=O)N(CC#C)CC3 [3-O-Propargyl-10-keto-N-propargylmorphinan] | > 10000 nM
12 | O=C(O)c1ccc2c(c1)[C@@]13CCCC[C@H]1[C@@H](C2=O)N(CC1CCC1)CC3 [3-Carboxyl-10-keto-N-cyclobutylmethyl morphinan] | 800 nM
13 | O=C1c2ccc(O)cc2[C@@]23CCCC[C@H]2[C@@H]1N(Cc1ccc2ccccc2c1)CC3 [3-Hydroxy-10-keto-N-(2-naphthylmethyl)morphinan] | > 10000 nM
14 | O=C1c2ccc(O)cc2[C@@]23CCCC[C@H]2[C@@H]1N(CC1CC1)CC3 [3-Hydroxy-10-keto-N-cyclopropylmethylmorphinan] | 150 nM
15 | N#Cc1ccc2c(c1)[C@@]13CCCC[C@H]1[C@@H](C2)N(CC1CCC1)CC3 [3-Cyano-N-cyclobutylmethylmorphinan] | 1900 nM
16 | O=C1c2ccc(O)cc2[C@@]23CCCC[C@H]2[C@@H]1NCC3 [3-hydroxy-normorphinan] | > 10000 nM
17 | NC(=O)c1ccc2c(c1)[C@@]13CCCC[C@H]1[C@@H](C2=O)N(CC1CCC1)CC3 [3-Carboxamido-10-keto-N-cyclobutylmethylmorphinan] | 50 nM
18 | CC(C)=CCN1CC[C@]23CCCC[C@H]2[C@H]1C(=O)c1ccc(O)cc13 [3-Hydroxy-10-keto-N-(3,3-dimethylallyl)morphinan] | 1100 nM
19 | O=C1c2ccc(OCC3CCC3)cc2[C@@]23CCCC[C@H]2[C@@H]1N(CC1CCC1)CC3 [3-O-Cyclobutylmethyl-10-keto-N-cyclobutylmethylmorphinan] | > 10000 nM
20 | COc1ccc2c(c1)[C@@]13CCCC[C@H]1[C@H](NCC3)C2=O [3-Methoxy normorphinan] | 16 nM
21 | N#Cc1ccc2c(c1)[C@@]13CCCC[C@H]1[C@@H](C2=O)N(CC1CCC1)CC3 [3-Cyano-10-keto-N-cyclobutylmethylmorphinan] | > 10000 nM
22 | CN1CC[C@]23CCCC[C@H]2[C@H]1Cc1ccc(C#N)cc13 [3-Cyano-N-methylmorphinan] | > 1000 nM
23 | CN1CC[C@]23CCCC[C@H]2[C@H]1Cc1ccc(C(N)=O)cc13 [3-Carboxamido-N-methylmorphinan] | 13 nM
24 | NC(=O)c1ccc2c(c1)[C@@]13CCCC[C@H]1[C@@H](C2)N(CC1CC1)CC3 [3-Carboxamido-N-cyclopropylmethylmorphinan] | 1 nM
25 | CN1CC[C@]23CCCC[C@H]2[C@H]1Cc1ccc(-c2nnn[nH]2)cc13 [3-(1'H-Tetrazol-5'-yl)-N-methylmorphinan] | > 10000 nM

From BindingDB's records for doi:10.1021/jm0304156 (Harvard Medical School, 2003)
